The values below come from paper PMC6689897, “Drugging an undruggable pocket on KRAS” (Proceedings of the National Academy of Sciences of the …, 2019).

For one assay, the target named is GTP-KRASG12D::SOS1 (Homo sapiens, UniProt P01116, G12D). Description: Alpha Screen PPI assay. Type of assay: biochemical. Conditions: duplicate. Here is the method: page 6: 217 The coordinates and structure factors of the structures have been deposited at the 218 Protein Data Bank with the accession codes PDB Code 6GJ5, 6GJ6, 6GJ7, 6GJ8. 219 220 Alpha Screen Assays 221 Measurements of various protein-protein interactions were performed using the Alpha 222 Screen technology developed by Perkin Elmer. Recombinant RAS proteins (H-, […] RAS variants; all KRAS variants are based on KRAS isoform 4B (uniprot id P01116-2); 224 KRAS (G12D) 1-169, N-terminal 6His-tag, C-terminal avi-tag was from Xtal 225 BioStructures, Inc., KRAS (G12C) 1-169, C-terminal avi-tag, biotinylated, mutations: 226 C51S, C80L, C118S, NRAS(wt) 1-172, C-terminal avi-tag, biotinylated; HRAS(wt) 1- 227 166, C-terminal avi-tag, biotinylated). Biotinylation was performed in vitro with 228 recombinant BirA biotin-protein ligase as recommended by the manufacturer (Avidity 229 LLC, Aurora, Colorado, USA). Interacting proteins such as SOS1 (564-1049, N-terminal 230 GST-tag, TEV cleavage site), cRaf (1-303, N-terminal GST-tag, TEV cleavage site) and 231 PI3KA- RBD (160-317, N-term-HIS_GST-tag) were expressed as glutathione S 232 transferase (GST) fusions. […] Single oxygen induced fluorescence was 246 measured at an Enspire multimode plate reader (Perkin Elmer) according to the 247 manufacturer's recommendations. Data were analyzed using the GraphPad Prism data 248 software. […]

Another assay concerns the target GCP-KRAS^G12D,C118S (Homo sapiens, UniProt P01116, C118S/G12D). Briefly: NMR KD, T35 construct (G12D, C118S), GCP-bound. Type of assay: binding. The settings on record: versus 17.

Regarding `C=CC(=O)N1CCN(c2ncnc3c(F)c(-c4c(O)cccc4F)c(Cl)cc23)CC1` [ARS-1620, reference compound], the 50% inhibitory concentration (IC50) (as a rule, the concentration that gives 50% inhibition) against GTP-KRASG12D::SOS1 is > 10 µM.
Still for that read-out and setting: to `Cn1cnc(Cn2ccc3ccc(CNCc4[nH]c5ccccc5c4[C@H]4NC(=O)c5ccc(O)cc54)cc32)c1` [Compound 1] belongs 0.49 µM.
On to `CN(C)Cc1[nH]c2ccccc2c1[C@H]1NC(=O)c2ccc(O)cc21` [Compound 18], for which the “more potent than nonphenolic matched molecular pair 17” value on GCP-KRAS^G12D,C118S was 6 fold.
